Here are results for one molecule from ChEMBL document CHEMBL4393671, “Design of a Cyclin G Associated Kinase (GAK)/Epidermal Growth Factor Receptor (EGFR) Inhibitor Set to Interrogate the Relationship of EGFR and GAK in Chordoma” (J Med Chem, 2019).

The target of data set [1] is T1, Epidermal growth factor receptor (Homo sapiens, UniProt P00533). Kind of data set: Inhibition of EGFR in human UCH1 cells assessed as reduction in EGF-induced EGFR phosphorylation at Y1068 residue at 10 uM preincubated for 4 hrs followed by EGF--stimulation and measured after 15 mins by Western blot analysis relative to control. The class given is cell-based. In general terms: A western blot detects proteins with antibodies after separation by electrophoresis.
T1 sequence (P00533 whole entry): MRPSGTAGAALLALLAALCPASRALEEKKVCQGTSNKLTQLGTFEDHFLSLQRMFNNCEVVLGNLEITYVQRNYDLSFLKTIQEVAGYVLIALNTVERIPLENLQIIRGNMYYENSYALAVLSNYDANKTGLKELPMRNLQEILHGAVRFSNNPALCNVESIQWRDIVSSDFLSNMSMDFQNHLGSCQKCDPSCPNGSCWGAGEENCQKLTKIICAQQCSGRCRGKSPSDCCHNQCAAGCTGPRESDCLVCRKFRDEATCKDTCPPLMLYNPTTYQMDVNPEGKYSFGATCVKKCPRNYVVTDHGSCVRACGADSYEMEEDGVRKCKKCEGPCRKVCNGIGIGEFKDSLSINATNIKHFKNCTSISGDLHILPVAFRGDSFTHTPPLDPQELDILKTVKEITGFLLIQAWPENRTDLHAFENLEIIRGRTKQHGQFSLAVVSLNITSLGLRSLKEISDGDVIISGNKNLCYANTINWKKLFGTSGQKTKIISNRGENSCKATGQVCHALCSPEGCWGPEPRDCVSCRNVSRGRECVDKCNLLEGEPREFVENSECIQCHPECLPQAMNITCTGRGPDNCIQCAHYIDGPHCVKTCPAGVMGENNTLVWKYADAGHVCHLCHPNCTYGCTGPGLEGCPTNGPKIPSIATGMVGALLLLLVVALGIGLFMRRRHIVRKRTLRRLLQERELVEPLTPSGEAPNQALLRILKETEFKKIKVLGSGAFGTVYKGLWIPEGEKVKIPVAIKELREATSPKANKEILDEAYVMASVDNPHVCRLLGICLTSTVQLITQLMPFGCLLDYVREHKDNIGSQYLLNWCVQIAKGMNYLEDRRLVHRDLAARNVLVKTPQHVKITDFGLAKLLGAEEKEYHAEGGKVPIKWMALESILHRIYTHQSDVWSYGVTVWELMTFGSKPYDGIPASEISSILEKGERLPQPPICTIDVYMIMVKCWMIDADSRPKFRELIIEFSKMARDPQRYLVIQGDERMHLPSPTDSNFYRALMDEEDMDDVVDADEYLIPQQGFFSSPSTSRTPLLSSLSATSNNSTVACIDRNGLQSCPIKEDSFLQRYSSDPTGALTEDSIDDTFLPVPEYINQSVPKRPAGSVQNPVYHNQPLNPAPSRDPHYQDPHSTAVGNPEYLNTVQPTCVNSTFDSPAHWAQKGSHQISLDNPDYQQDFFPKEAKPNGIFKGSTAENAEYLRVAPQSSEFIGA

Data set [2] in a line: cells. The format is functional, cell-based. As to conditions: Homo sapiens, UCH2, 72 h.
Description: Antiproliferative activity against human UCH2 cells measured after 72 hrs by alamar blue assay
In data set [3] the target is T1, Epidermal growth factor receptor.
Description: Binding affinity to wild-type human partial length EGFR (R669 to V1011 residues) expressed in bacterial expression system by Kinomescan method
The target of data set [4] is T2, Cyclin-G-associated kinase (Homo sapiens, UniProt O14976).
T2 sequence (O14976 whole entry): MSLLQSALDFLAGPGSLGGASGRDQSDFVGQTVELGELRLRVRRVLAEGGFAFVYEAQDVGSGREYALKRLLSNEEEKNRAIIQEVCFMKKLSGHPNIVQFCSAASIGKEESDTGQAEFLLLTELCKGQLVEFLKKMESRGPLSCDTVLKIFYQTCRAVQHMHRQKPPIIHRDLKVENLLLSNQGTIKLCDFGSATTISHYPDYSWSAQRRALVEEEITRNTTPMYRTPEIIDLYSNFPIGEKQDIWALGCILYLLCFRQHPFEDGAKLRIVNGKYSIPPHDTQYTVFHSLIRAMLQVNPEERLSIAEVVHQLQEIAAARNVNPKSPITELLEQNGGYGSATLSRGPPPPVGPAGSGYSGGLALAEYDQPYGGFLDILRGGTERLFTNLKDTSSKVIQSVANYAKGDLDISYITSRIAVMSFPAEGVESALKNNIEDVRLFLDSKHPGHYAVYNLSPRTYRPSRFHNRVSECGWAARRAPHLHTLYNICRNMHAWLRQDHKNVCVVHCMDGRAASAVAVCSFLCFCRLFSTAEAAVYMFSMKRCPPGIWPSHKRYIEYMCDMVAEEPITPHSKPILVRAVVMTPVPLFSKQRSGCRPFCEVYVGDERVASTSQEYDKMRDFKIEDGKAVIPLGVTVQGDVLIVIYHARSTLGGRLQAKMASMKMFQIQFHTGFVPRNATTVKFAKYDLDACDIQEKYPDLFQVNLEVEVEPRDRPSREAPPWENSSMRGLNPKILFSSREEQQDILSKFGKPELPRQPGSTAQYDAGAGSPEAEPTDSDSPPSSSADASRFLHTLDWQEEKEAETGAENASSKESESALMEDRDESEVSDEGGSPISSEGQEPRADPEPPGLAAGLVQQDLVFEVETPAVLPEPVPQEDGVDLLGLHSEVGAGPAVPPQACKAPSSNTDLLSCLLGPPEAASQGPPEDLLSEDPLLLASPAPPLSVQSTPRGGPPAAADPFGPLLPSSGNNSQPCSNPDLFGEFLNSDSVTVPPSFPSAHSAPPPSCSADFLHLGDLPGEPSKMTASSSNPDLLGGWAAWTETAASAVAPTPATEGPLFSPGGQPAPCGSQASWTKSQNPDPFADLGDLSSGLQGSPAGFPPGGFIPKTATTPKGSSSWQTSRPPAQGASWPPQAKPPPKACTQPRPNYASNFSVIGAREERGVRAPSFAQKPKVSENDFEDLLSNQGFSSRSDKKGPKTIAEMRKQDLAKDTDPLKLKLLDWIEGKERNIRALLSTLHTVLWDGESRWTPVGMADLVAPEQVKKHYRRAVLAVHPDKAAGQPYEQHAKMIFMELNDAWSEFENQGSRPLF
Briefly: Binding affinity to wild-type human partial length GAK (G13 to Y338 residues) expressed in bacterial expression system by Kinomescan method.

Data set [5] is described as follows: cells. As to conditions: Homo sapiens, 72 h. The format is functional, cell-based.
Description: Antiproliferative activity against human UMCHOR1 cells measured after 72 hrs by alamar blue assay
A short description of data set [6]: cells. The format is functional, cell-based. The settings on record: Homo sapiens, 72 h. The source holds these as a separate data set.
Description: Antiproliferative activity against human CH22 cells measured after 72 hrs by alamar blue assay
Data set [7] is described as follows: cells. The format is functional, cell-based. The settings on record: Homo sapiens, 72 h. This is another data set of the same source.
Description: Antiproliferative activity against human UCH12 cells measured after 72 hrs by alamar blue assay
Data set [8] can be described thus: cells. The class given is functional, cell-based. The settings on record: Homo sapiens, 72 h. The source holds these as a separate data set.
Description: Antiproliferative activity against human UCH14 cells measured after 72 hrs by alamar blue assay
Data set [9] is described as follows: Effect on total EGFR expression in human UCH2 cells at 1 to 10 uM measured after 4 hrs by Western blot analysis. The format is ADME, cell-based.
For data set [10], the target named is T1, Epidermal growth factor receptor. Briefly: Inhibition of EGFR in human UCH2 cells assessed as reduction in EGF-induced EGFR phosphorylation at Y1068 residue at 1 uM preincubated for 4 hrs followed by EGF--stimulation and measured after 15 mins by Western blot analysis relative to control. The class given is cell-based.
The target in data set [11] is T3, Cyclin-G-associated kinase (Homo sapiens) (UniProt O14976).
T3 sequence (whole entry): T2 sequence (O14976 whole entry)
Briefly: Binding affinity to GAK in human SUM159 cell lysates by multiplexed inhibitor bead profiling-based LC-MS/MS analysis. As to conditions: Lysate. The class given is subcellular.

pIC50, pKd: −log10 of the molar value. Activity calls are given as the source filed them. The rule behind the calls is not given here. Where only a bound is given, the exact number is not on record here.

As to `C#Cc1cccc(Nc2ccnc3cc(OC)c(OC)cc23)c1`, the inhibition was determined as 60.8% in data set [1] and 0% in data set [10]. Further, the pIC50 in “cells [2]” is less than 4.30; in the data set “cells [5]” it was 4.85; in the data set “cells [6]”, 4.89; in the data set “cells [7]”, 4.52; in the data set “cells [8]”, 4.89. Moreover, the pKd in data set [3] was 9.57; in data set [4], 8.12. The Activity entry in data set [9] is given as “Non-Toxic”. Also, in data set [11], the outcome was Active.

As usually defined, the inhibition is the share of the control response that was lost under treatment. For orientation: pIC50 means the IC50 on a negative log10 scale, so that one unit is a factor of ten. For orientation: pKd means the Kd on a negative log10 scale, so that one unit is a factor of ten. Read a low pKd as a high Kd.
